In US10456407B2, “Combination therapy for treating cancer” (Epizyme, Inc., priority 2015, dated 2019):
“And” between values parts separate entries of the source, which are not always exact repeats. Equal entries are not always repeated.

Tested on: DOHH2 cells
Assay: RT2 Glucocorticoid signaling PCR array, DOHH2 cell line (Table 4b)
Assay type: cell-based
Details: DOHH2, 4 days

## C[C@]12C=CC(=O)C=C1CC[C@@H]1[C@@H]2[C@@H](O)C[C@@]2(C)[C@H]1CC[C@]2(O)C(=O)CO [Prednisolone, prednisolone]
  ACTB Ct Values: 14.721
  ADARB1 Ct Values: 33.560
  AFF1 Ct Values: 23.992
  AK2 Ct Values: 20.262
  AMPD3 Ct Values: 27.535
  ANGPTL4 Ct Values: 31.538
  ANXA4 Ct Values: 24.997
  ARID68 Ct Values: 23.885
  ASPH Ct Values: 23.369
  ATF4 Ct Values: 19.313
  B2M Ct Values: 18.884
  BCL6 Ct Values: 21.801
  BMPER Ct Values: 39.378
  CEBPA Ct Values: 32.188
  CEBPB Ct Values: 24.317
  COL4A2 Ct Values: 38.993
  CREB1 Ct Values: 22.890
  CREB3 Ct Values: 24.865
  CREB3L4 Ct Values: 24.616
  CTGF Ct Values: 33.728
  CYB561 Ct Values: 39.582
  DDIT4 Ct Values: 24.105
  DUSP1 Ct Values: 27.866
  EDN1 Ct Values: 32.263
  EHD3 Ct Values: 31.098
  ERRFI1 Ct Values: 32.635
  FK8PS Ct Values: 20.912
  FOSL2 Ct Values: 31.543
  GAPDH Ct Values: 16.551
  GDPD1 Ct Values: 27.884
  GHRHR Ct Values: 36.095
  GLUL Ct Values: 34.574
  GOT1 Ct Values: 23.532
  H6PD Ct Values: 24.696
  HNRPLL Ct Values: 33.284
  HPRT1 Ct Values: 21.777
  IL1RN Ct Values: 33.560
  IL6 Ct Values: 34.758
  KLF9 Ct Values: 28.547
  KLF13 Ct Values: 22.546
  LOX Ct Values: 34.158
  MERTK Ct Values: 32.892
  NFKBIA Ct Values: 22.830
  NR3C1 Ct Values: 22.794
  PDCD7 Ct Values: 23.552
  PDGFRB Ct Values: 34.934
  PDP1 Ct Values: 25.682
  PER1 Ct Values: 25.142
  PER2 Ct Values: 24.159
  PIK3R1 Ct Values: 23.850
  PLD1 Ct Values: 37.120
  PLEKHF1 Ct Values: 29.414
  POU2F1 Ct Values: 24.648
  POU2F2 Ct Values: 22.489
  RASA3 Ct Values: 27.803
  RGS2 Ct Values: 25.514
  RHOB Ct Values: 33.162
  RPLP0 Ct Values: 15.128
  SESN1 Ct Values: 22.839
  SGK1 Ct Values: 29.628
  SLC10A6 Ct Values: 36.176
  SLC19A2 Ct Values: 25.455
  SLC22A5 Ct Values: 28.915
  SNTA1 Ct Values: 25.124
  SPHK1 Ct Values: 29.971
  SPSB1 Ct Values: 26.911
  STAT5A Ct Values: 23.565
  STAT5B Ct Values: 22.632
  TBL1XR1 Ct Values: 21.304
  TNF Ct Values: 31.956
  TSC22D3 Ct Values: 23.310
  USP2 Ct Values: 23.501
  USPS4 Ct Values: 26.683
  VDR Ct Values: 26.847
  VLDLR Ct Values: 28.584
  ZFP36 Ct Values: 24.270
  ZHX3 Ct Values: 24.418
  ZNF281 Ct Values: 23.828
Array control, three lines
  PPC Ct Values: 18.684 and 18.699 and 19.076
  RTC Ct Values: 21.449 and 21.464 and 21.483
Normalized to B2M
  ADARB1 ΔCT (B2M): 14.676
  AFF1 ΔCT (B2M): 5.108
  AK2 ΔCT (B2M): 1.378
  AMPD3 ΔCT (B2M): 8.651
  ANGPTL4 ΔCT (B2M): 12.654
  ANXA4 ΔCT (B2M): 6.113
  ARID68 ΔCT (B2M): 5.001
  ASPH ΔCT (B2M): 4.485
  ATF4 ΔCT (B2M): 0.429
  B2M ΔCT (B2M): 0.000
  BCL6 ΔCT (B2M): 2.917
  BMPER ΔCT (B2M): 20.494
  CEBPA ΔCT (B2M): 13.304
  CEBPB ΔCT (B2M): 5.433
  COL4A2 ΔCT (B2M): 20.109
  CREB1 ΔCT (B2M): 4.006
  CREB3L4 ΔCT (B2M): 5.732
  CREB3 ΔCT (B2M): 5.981
  CTGF ΔCT (B2M): 14.844
  CYB561 ΔCT (B2M): 20.698
  DDIT4 ΔCT (B2M): 5.221
  DUSP1 ΔCT (B2M): 8.982
  EDN1 ΔCT (B2M): 13.379
  EHD3 ΔCT (B2M): 12.214
  ERRFI1 ΔCT (B2M): 13.751
  FK8PS ΔCT (B2M): 2.028
  FOSL2 ΔCT (B2M): 12.659
  GAPDH ΔCT (B2M): −2.333
  GDPD1 ΔCT (B2M): 9.000
  GHRHR ΔCT (B2M): 17.211
  GLUL ΔCT (B2M): 15.690
  GOT1 ΔCT (B2M): 4.648
  H6PD ΔCT (B2M): 6.085
  HNRPLL ΔCT (B2M): 14.400
  HPRT1 ΔCT (B2M): 2.893
  IL1RN ΔCT (B2M): 14.676
  IL6 ΔCT (B2M): 19.457
  KLF9 ΔCT (B2M): 9.663
  KLF13 ΔCT (B2M): 3.662
  LOX ΔCT (B2M): 15.274
  MERTK ΔCT (B2M): 14.008
  NFKBIA ΔCT (B2M): 3.946
  NR3C1 ΔCT (B2M): 3.910
  PDCD7 ΔCT (B2M): 4.668
  PDGFRB ΔCT (B2M): 16.050
  PDP1 ΔCT (B2M): 6.798
  PER1 ΔCT (B2M): 6.258
  PER2 ΔCT (B2M): 5.275
  PIK3R1 ΔCT (B2M): 4.966
  PLD1 ΔCT (B2M): 18.236
  PLEKHF1 ΔCT (B2M): 10.530
  POU2F1 ΔCT (B2M): 5.764
  POU2F2 ΔCT (B2M): 3.605
  RASA3 ΔCT (B2M): 8.919
  RGS2 ΔCT (B2M): 6.630
  RHOB ΔCT (B2M): 14.278
  RPLP0 ΔCT (B2M): −3.756
  SESN1 ΔCT (B2M): 3.955
  SGK1 ΔCT (B2M): 10.744
  SLC10A6 ΔCT (B2M): 17.292
  SLC19A2 ΔCT (B2M): 6.571
  SLC22A5 ΔCT (B2M): 10.031
  SNTA1 ΔCT (B2M): 6.240
  SPHK1 ΔCT (B2M): 11.087
  SPSB1 ΔCT (B2M): 8.027
  STAT5A ΔCT (B2M): 5.001
  STAT5B ΔCT (B2M): 3.748
  TBL1XR1 ΔCT (B2M): 2.420
  TNF ΔCT (B2M): 13.072
  TSC22D3 ΔCT (B2M): 4.426
  USP2 ΔCT (B2M): 4.617
  USPS4 ΔCT (B2M): 7.799
  VDR ΔCT (B2M): 7.963
  VLDLR ΔCT (B2M): 9.700
  ZFP36 ΔCT (B2M): 5.386
  ZHX3 ΔCT (B2M): 5.534
  ZNF281 ΔCT (B2M): 4.944
Normalized to B2M, array control, three lines
  RTC ΔCT (B2M): 2.565 and 2.580 and 2.599
Vs DMSO
  ADARB1 ΔΔCT: 1.867
  AFF1 ΔΔCT: −0.567
  AK2 ΔΔCT: 0.053
  AMPD3 ΔΔCT: 1.259
  ANGPTL4 ΔΔCT: 0.529
  ANXA4 ΔΔCT: 0.305
  ARID68 ΔΔCT: 0.129
  ASPH ΔΔCT: 0.524
  ATF4 ΔΔCT: 0.282
  BCL6 ΔΔCT: 0.397
  BMPER ΔΔCT: 1.466
  CEBPA ΔΔCT: −2.341
  CEBPB ΔΔCT: 0.531
  COL4A2 ΔΔCT: 6.804
  CREB1 ΔΔCT: 0.085
  CREB3L4 ΔΔCT: 0.336
  CREB3 ΔΔCT: 0.061
  CTGF ΔΔCT: 0.142
  CYB561 ΔΔCT: 1.917
  DDIT4 ΔΔCT: 0.296
  DUSP1 ΔΔCT: 0.387
  EDN1 ΔΔCT: 1.155
  EHD3 ΔΔCT: −1.092
  ERRFI1 ΔΔCT: 0.235
  FK8PS ΔΔCT: −0.948
  FOSL2 ΔΔCT: −0.099
  GDPD1 ΔΔCT: 0.477
  GHRHR ΔΔCT: −1.464
  GLUL ΔΔCT: −1.434
  GOT1 ΔΔCT: 0.230
  H6PD ΔΔCT: 0.377
  HNRPLL ΔΔCT: 3.085
  KLF9 ΔΔCT: −0.019
  KLF13 ΔΔCT: −0.280
  LOX ΔΔCT: 0.721
  MERTK ΔΔCT: 0.020
  NFKBIA ΔΔCT: 0.064
  NR3C1 ΔΔCT: 0.317
  PDCD7 ΔΔCT: 0.021
  PDP1 ΔΔCT: −0.056
  PER1 ΔΔCT: 0.323
  PER2 ΔΔCT: −0.358
  PIK3R1 ΔΔCT: −0.202
  PLD1 ΔΔCT: 0.207
  PLEKHF1 ΔΔCT: −0.347
  POU2F1 ΔΔCT: 0.395
  POU2F2 ΔΔCT: 0.145
  RASA3 ΔΔCT: 0.776
  RGS2 ΔΔCT: 0.849
  RHOB ΔΔCT: 0.626
  SESN1 ΔΔCT: −1.262
  SGK1 ΔΔCT: 2.120
  SLC10A6 ΔΔCT: 1.818
  SLC19A2 ΔΔCT: −0.020
  SLC22A5 ΔΔCT: 0.648
  SNTA1 ΔΔCT: 0.665
  SPHK1 ΔΔCT: −0.581
  SPSB1 ΔΔCT: −0.074
  STAT5A ΔΔCT: −0.227
  STAT5B ΔΔCT: 0.254
  TBL1XR1 ΔΔCT: 0.032
  TNF ΔΔCT: 0.753
  TSC22D3 ΔΔCT: −1.741
  USP2 ΔΔCT: −0.478
  USPS4 ΔΔCT: 0.209
  VDR ΔΔCT: −0.434
  VLDLR ΔΔCT: 1.543
  ZFP36 ΔΔCT: 0.225
  ZHX3 ΔΔCT: −0.657
  ZNF281 ΔΔCT: −0.113
